Tested on: yeast genes (level of expressed mRNA)
Experiment: DNA chip analysis of expressed mRNA of yeast genes after 2 h culture with a toxic chemical substance
Type: cell-based, Saccharomyces cerevisiae S288C
Procedure, shortened: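 Values are treated-to-control fluorescence ratios from a whole-yeast-genome DNA chip (65° C, over 12 h hybridization) using Cy3/Cy5-labelled cDNA from mRNA. Log-phase S288C cells in YPD at 25° C were exposed 2 h to a toxicant at sublethal, growth-inhibiting concentration.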

sodium dodecylbenzosulfonate [(17)]
level of expressed mRNA in the presence of chemical substance/in its absence (gene YAL012W): 0.9
The level of expressed mRNA in the presence of chemical substance/absence: YAL014C (gene YAL014C): 1.1
The level of expressed mRNA in the presence of chemical substance/absence: YAL017W (gene YAL017W): 1.0
The level of expressed mRNA in the presence of chemical substance/absence: YAL018C (gene YAL018C): 0.9
level of expressed mRNA in the presence of chemical substance/in its absence (gene YAL038W): 1.0
level of expressed mRNA in the presence of chemical substance/in its absence (gene YAL044C): 1.4
The level of expressed mRNA in the presence of chemical substance/absence: YAL049C (gene YAL049C): 1.6
level of expressed mRNA in the presence of chemical substance/in its absence (gene YAL054C): 1.5
The level of expressed mRNA in the presence of chemical substance/absence: YAR047C (gene YAR047C): 1.7
The level of expressed mRNA in the presence of chemical substance/absence: YAR064W (gene YAR064W): 0.9
level of expressed mRNA in the presence of chemical substance/in its absence (gene YAR071W): 0.7
level of expressed mRNA in the presence of chemical substance/in its absence (gene YBL001C): 1.6
The level of expressed mRNA in the presence of chemical substance/absence: YBL044W (gene YBL044W): 0.8
The level of expressed mRNA in the presence of chemical substance/absence: YBL100C (gene YBL100C): 0.8
The level of expressed mRNA in the presence of chemical substance/absence: YBR012C (gene YBR012C): 1.4
The level of expressed mRNA in the presence of chemical substance/absence: YBR013C (gene YBR013C): 1.4
level of expressed mRNA in the presence of chemical substance/in its absence (gene YBR014C): 1.0
level of expressed mRNA in the presence of chemical substance/in its absence (gene YBR023C): 0.7
level of expressed mRNA in the presence of chemical substance/in its absence (gene YBR029C): 0.6
level of expressed mRNA in the presence of chemical substance/in its absence (gene YBR035C): 1.5
level of expressed mRNA in the presence of chemical substance/in its absence (gene YBR050C): 1.5
The level of expressed mRNA in the presence of chemical substance/absence: YBR051W (gene YBR051W): 1.1
The level of expressed mRNA in the presence of chemical substance/absence: YBR063C (gene YBR063C): 1.2
The level of expressed mRNA in the presence of chemical substance/absence: YBR066C (gene YBR066C): 1.2
level of expressed mRNA in the presence of chemical substance/in its absence (gene YBR068C): 1.1
level of expressed mRNA in the presence of chemical substance/in its absence (gene YBR111C): 1.4
The level of expressed mRNA in the presence of chemical substance/absence: YBR124W (gene YBR124W): 0.9
The level of expressed mRNA in the presence of chemical substance/absence: YBR129C (gene YBR129C): 1.0
level of expressed mRNA in the presence of chemical substance/in its absence (gene YBR145W): 1.7
The level of expressed mRNA in the presence of chemical substance/absence: YBR162C (gene YBR162C): 1.2
level of expressed mRNA in the presence of chemical substance/in its absence (gene YBR183W): 1.4
level of expressed mRNA in the presence of chemical substance/in its absence (gene YBR222C): 0.8
The level of expressed mRNA in the presence of chemical substance/absence: YBR255W (gene YBR255W): 1.0
The level of expressed mRNA in the presence of chemical substance/absence: YBR281C (gene YBR281C): 0.7
The level of expressed mRNA in the presence of chemical substance/absence: YBR287W (gene YBR287W): 3.2
level of expressed mRNA in the presence of chemical substance/in its absence (gene YBR299W): 1.0
level of expressed mRNA in the presence of chemical substance/in its absence (gene YCL009C): 1.1
The level of expressed mRNA in the presence of chemical substance/absence: YCL042W (gene YCL042W): 0.8
The level of expressed mRNA in the presence of chemical substance/absence: YCL044C (gene YCL044C): 0.9
The level of expressed mRNA in the presence of chemical substance/absence: YCL056C (gene YCL056C): 1.2
level of expressed mRNA in the presence of chemical substance/in its absence (gene YCL064C): 0.3
The level of expressed mRNA in the presence of chemical substance/absence: YCR007C (gene YCR007C): 2.6
level of expressed mRNA in the presence of chemical substance/in its absence (gene YCR037C): 1.4
level of expressed mRNA in the presence of chemical substance/in its absence (gene YCR048W): 1.2
level of expressed mRNA in the presence of chemical substance/in its absence (gene YCR098C): 1.7
level of expressed mRNA in the presence of chemical substance/in its absence (gene YDL022W): 1.0
The level of expressed mRNA in the presence of chemical substance/absence: YDL046W (gene YDL046W): 1.2
The level of expressed mRNA in the presence of chemical substance/absence: YDL089W (gene YDL089W): 1.0
The level of expressed mRNA in the presence of chemical substance/absence: YDL173W (gene YDL173W): 1.3
The level of expressed mRNA in the presence of chemical substance/absence: YDL193W (gene YDL193W): 0.9
The level of expressed mRNA in the presence of chemical substance/absence: YDL233W (gene YDL233W): 1.1
level of expressed mRNA in the presence of chemical substance/in its absence (gene YDR009W): 1.2
level of expressed mRNA in the presence of chemical substance/in its absence (gene YDR019C): 1.2
The level of expressed mRNA in the presence of chemical substance/absence: YDR071C (gene YDR071C): 0.9
The level of expressed mRNA in the presence of chemical substance/absence: YDR078C (gene YDR078C): 0.9
The level of expressed mRNA in the presence of chemical substance/absence: YDR090C (gene YDR090C): 1.1
The level of expressed mRNA in the presence of chemical substance/absence: YDR109C (gene YDR109C): 1.2
The level of expressed mRNA in the presence of chemical substance/absence: YDR128W (gene YDR128W): 0.9
The level of expressed mRNA in the presence of chemical substance/absence: YDR133C (gene YDR133C): 0.6
The level of expressed mRNA in the presence of chemical substance/absence: YDR140W (gene YDR140W): 1.3
The level of expressed mRNA in the presence of chemical substance/absence: YDR221W (gene YDR221W): 1.1
The level of expressed mRNA in the presence of chemical substance/absence: YDR250C (gene YDR250C): 0.9
The level of expressed mRNA in the presence of chemical substance/absence: YDR271C (gene YDR271C): 1.2
The level of expressed mRNA in the presence of chemical substance/absence: YDR278C (gene YDR278C): 0.7
The level of expressed mRNA in the presence of chemical substance/absence: YDR281C (gene YDR281C): 1.5
The level of expressed mRNA in the presence of chemical substance/absence: YDR316W (gene YDR316W): 0.6
The level of expressed mRNA in the presence of chemical substance/absence: YDR338C (gene YDR338C): 0.9
The level of expressed mRNA in the presence of chemical substance/absence: YDR366C (gene YDR366C): 1.2
level of expressed mRNA in the presence of chemical substance/in its absence (gene YDR380W): 0.8
level of expressed mRNA in the presence of chemical substance/in its absence (gene YDR410C): 1.0
The level of expressed mRNA in the presence of chemical substance/absence: YDR421W (gene YDR421W): 0.7
The level of expressed mRNA in the presence of chemical substance/absence: YDR425W (gene YDR425W): 1.2
The level of expressed mRNA in the presence of chemical substance/absence: YDR485C (gene YDR485C): 0.8
level of expressed mRNA in the presence of chemical substance/in its absence (gene YDR487C): 1.5
level of expressed mRNA in the presence of chemical substance/in its absence (gene YDR502C): 0.9
The level of expressed mRNA in the presence of chemical substance/absence: YDR504C (gene YDR504C): 1.2
level of expressed mRNA in the presence of chemical substance/in its absence (gene YEL011W): 1.4
level of expressed mRNA in the presence of chemical substance/in its absence (gene YEL020C): 1.2
The level of expressed mRNA in the presence of chemical substance/absence: YEL044W (gene YEL044W): 1.4
level of expressed mRNA in the presence of chemical substance/in its absence (gene YER026C): 1.7
level of expressed mRNA in the presence of chemical substance/in its absence (gene YER069W): 1.1
The level of expressed mRNA in the presence of chemical substance/absence: YER092W (gene YER092W): 1.4
The level of expressed mRNA in the presence of chemical substance/absence: YER182W (gene YER182W): 0.8
The level of expressed mRNA in the presence of chemical substance/absence: YFL042C (gene YFL042C): 1.1
level of expressed mRNA in the presence of chemical substance/in its absence (gene YFR015C): 1.3
The level of expressed mRNA in the presence of chemical substance/absence: YFR026C (gene YFR026C): 1.1
The level of expressed mRNA in the presence of chemical substance/absence: YFR056C (gene YFR056C): 1.1
level of expressed mRNA in the presence of chemical substance/in its absence (gene YGL001C): 1.9
level of expressed mRNA in the presence of chemical substance/in its absence (gene YGL022W): 0.9
level of expressed mRNA in the presence of chemical substance/in its absence (gene YGL039W): 0.6
The level of expressed mRNA in the presence of chemical substance/absence: YGL041C (gene YGL041C): 1.0
The level of expressed mRNA in the presence of chemical substance/absence: YGL045W (gene YGL045W): 1.3
The level of expressed mRNA in the presence of chemical substance/absence: YGL057C (gene YGL057C): 0.9
The level of expressed mRNA in the presence of chemical substance/absence: YGL088W (gene YGL088W): 0.5

Source: patent US20050112573A1, “Method of detecting toxic substance” (priority 2001, published 2005)
